How the values were obtained:
[1] = molecular target: T1, kinase domain protein of RC kinase (Homo sapiens, UniProt Q56UN5); test: Enzymatic assay for kinase inhibitory activity (Crebtide substrate, LANCE readout), kinase domain protein; format: biochemical; settings: test compound 1 μM, ATP 1 μM, Crebtide 50 nM
T1 sequence (Q56UN5 1061-1324 limits assumed): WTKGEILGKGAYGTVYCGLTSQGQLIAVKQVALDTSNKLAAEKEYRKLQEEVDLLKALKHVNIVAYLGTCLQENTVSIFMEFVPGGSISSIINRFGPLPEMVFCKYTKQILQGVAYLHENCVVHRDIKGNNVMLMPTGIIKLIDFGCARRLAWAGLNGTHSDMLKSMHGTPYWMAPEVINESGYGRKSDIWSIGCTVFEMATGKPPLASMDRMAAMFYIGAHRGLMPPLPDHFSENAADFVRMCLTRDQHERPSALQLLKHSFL
Experimental: Solutions of a test compound, Crebtide (a substrate), a kinase, and ATP were prepared using 1×MAPK Buffer (50 mM HEPES, 1 mM EGTA, […], 10 mM MgCl2, 2 mM DTT, and 0.01% Tween 20).
To each well, the test compound (1 μL) was first added (in duplicate) to reach a final concentration of 1 μM or 1×IC50 of the compound. The kinase (5 μL) was then added to each well to reach a final concentration of […] for the kinase domain or […] for the full-length domain. Each plate included a positive and negative controls in duplicate wells. Crebtide (2.5 μL) was then added to each well in duplicate to reach a final concentration of 50 nM. If the full-length kinase was used, the plates were incubated for 45 min at room temperature before proceeding further. ATP (2.5 μL) was added to each well to reach a final concentration of 1 μM for the kinase domain and 3 μM for the full-length.
After the addition of ATP, the plates were incubated for 45 min at room temperature. During the incubation, an EDTA solution (40 mM) and anti-Crebtide ([…]) were prepared. Additionally, a detection buffer stock solution was diluted ten fold before use.
After the incubation, the anti-Crebtide (5 μL) and EDTA (5 μL) were added to each well to reach their final concentrations of […] and 10 mM, respectively. The plates were allowed to develop at room temperature for 45 min. The plates were then read at 665 nm and 615 nm using Perkin Elmer Lance machine.
The biological results of inhibition of the kinase domain protein of RC kinase are summarized in Tables 2 and 3, wherein A represents at least 50% inhibition of the RC kinase activity at 1 μM; B represents no greater than 50% but at least 20% inhibition of the RC kinase activity at 1 μM; C represents no greater than 20% but at least 5% inhibition of the RC kinase activity at 1 μM; and D represents no greater than 5% inhibition of the RC kinase activity at 1 μM.

Compound	inhibition at 1 µM [1]	melting point	Activity (inhibition of the RC kinase activity at 1 μM) [1]
NC(=O)c1c(Nc2ccc(F)c(Cl)c2)n[nH]c1NCc1ccc(O)cc1 [Compound D159, 3-((3-chloro-4-fluorophenyl)amino)-5-((4-hydroxybenzyl)amino)-1H-pyrazole-4-carboxamide]	≥ 50%	178 to 183 °C	–
NC(=O)c1c(Nc2ccc(N3CCN(c4ncccn4)CC3)cc2)n[nH]c1NCc1ccc(O)cc1 [Compound D124]	≥ 50%	219 to 227 °C	–
NC(=O)c1c(Nc2ccc(N3CCOCC3)nc2)n[nH]c1NCc1ccc(O)cc1 [Compound D118]	≥ 50%	199 to 203 °C	–
NC(=O)c1c(Nc2cccnc2)n[nH]c1NCc1ccc[nH]1 [Compound D53, 5-(((1H-pyrrol-2-yl)methyl)amino)-3-(pyridin-3-ylamino)-1H-pyrazole-4-carboxamide]	5 to 20%	201 to 206 °C	–
CC(C)N1CCN(c2ccc(Nc3n[nH]c(NCc4ccc(O)cc4)c3C(N)=O)cc2)CC1 [Compound D82, 5-((4-hydroxybenzyl)amino)-3-((4-(4-isopropylpiperazin-1-yl)phenyl)amino)-1H-pyrazole-4-carboxamide]	≥ 50%	210 to 220 °C	–
CC1CCN(C2CCN(c3ccc(Nc4n[nH]c(NCc5ccc(O)cc5)c4C(N)=O)cn3)CC2)CC1 [Compound D119]	≥ 50%	203 to 206 °C	–
N#Cc1c(Nc2cccc(Cl)c2)n[nH]c1NCc1ccc(Oc2ccc(C(F)(F)F)cn2)cc1 [Compound C32, 3-((3-chlorophenyl)amino)-5-((4-((5-(trifluoromethyl)pyridin-2-yl)oxy)benzyl)amino)-1H-pyrazole-4-carbonitrile]	–	184 to 194 °C	C (no greater than 20% but at least 5% inhibition of the RC kinase activity at 1 μM)
NC(=O)c1c(Nc2ccc(-n3ccnc3)cc2)n[nH]c1NCc1ccc(O)cc1 [Compound D60]	≥ 50%	228 to 231 °C	–
NC(=O)c1c(Nc2ccc(Cl)nc2)n[nH]c1NCc1ccc(O)cc1 [Compound D90, 3-((6-chloropyridin-3-yl)amino)-5-((4-hydroxybenzyl)amino)-1H-pyrazole-4-carboxamide]	≥ 50%	221 to 225 °C	–
NC(=O)c1c(Nc2cccnc2)n[nH]c1NCc1ccccc1 [Compound D155, 5-(benzylamino)-3-(pyridin-3-ylamino)-1H-pyrazole-4-carboxamide]	5 to 20%	228 to 231 °C	–
NC(=O)c1c(Nc2ccc(N3CCOCC3)c(Cl)c2)n[nH]c1NCc1ccc(O)cc1 [Compound D75, 3-((3-chloro-4-morpholinophenyl)amino)-5-((4-hydroxybenzyl)amino)-1H-pyrazole-4-carboxamide]	≥ 50%	162 to 168 °C	–
NC(=O)c1c(Nc2ccc(N)cc2)n[nH]c1NCc1ccc(O)cc1 [Compound D101, 3-((4-aminophenyl)amino)-5-((4-hydroxybenzyl)amino)-1H-pyrazole-4-carboxamide]	≥ 50%	190 to 193 °C	–
Cn1nc(CSc2ccccc2)c(CNc2[nH]nc(Nc3cccc(Cl)c3)c2C#N)c1Cl [Compound C3]	5 to 20%	100 to 104 °C	–
NC(=O)c1c(Nc2ccc(Br)c(Cl)c2)n[nH]c1NCc1ccc(O)cc1 [Compound D160, 3-((4-bromo-3-chlorophenyl)amino)-5-((4-hydroxybenzyl)amino)-1H-pyrazole-4-carboxamide]	20 to 50%	199 to 204 °C	–
CCOC(=O)c1cccc(Nc2n[nH]c(NCc3ccc(O)cc3)c2C(N)=O)c1 [Compound D67, ethyl 3-((4-carbamoyl-5-((4-hydroxybenzyl)amino)-1H-pyrazol-3-yl)amino)benzoate]	≥ 50%	132 to 136 °C	–
COc1cc(CNc2[nH]nc(NCc3ccc(O)cc3)c2C(N)=O)ccc1F [Compound D105]	20 to 50%	180 to 184 °C	–
NC(=O)c1c(Nc2cccc(Cl)c2)n[nH]c1NCc1ccc(Oc2ccc(C(F)(F)F)cn2)cc1 [Compound D33, 3-((3-chlorophenyl)amino)-5-((4-((5-(trifluoromethyl)pyridin-2-yl)oxy)benzyl)amino)-1H-pyrazole-4-carboxamide]	5 to 20%	205 to 211 °C	–

Compound	inhibition at 1 µM [1]	melting point	Activity (inhibition of the RC kinase activity at 1 μM) [1]
COc1ccc(C(C)C)cc1CNc1[nH]nc(Nc2cccc(Cl)c2)c1C(N)=O [Compound D94]	20 to 50%	184 to 194 °C	–
COc1cccc(CNc2[nH]nc(Nc3cccnc3)c2C(N)=O)c1 [Compound D152]	20 to 50%	226 to 230 °C	–
NC(=O)c1c(NCc2ccc(Cl)c(F)c2)n[nH]c1NCc1ccc(O)cc1 [Compound D122]	5 to 20%	204 to 207 °C	–
CN1CCN(c2ccc(Nc3n[nH]c(NCc4ccc(O)cc4)c3C(N)=O)cc2Cl)CC1 [Compound D116]	≥ 50%	230 to 236 °C	–
N#Cc1c(Nc2cccnc2)n[nH]c1NCc1ccc(O)cc1 [Compound C33, 5-((4-hydroxybenzyl)amino)-3-(pyridin-3-ylamino)-1H-pyrazole-4-carbonitrile]	20 to 50%	216 to 222 °C	–
NC(=O)c1c(Nc2ccc3[nH]ncc3c2)n[nH]c1NCc1ccc(O)cc1 [Compound D76, 3-((1H-indazol-5-yl)amino)-5-((4-hydroxybenzyl)amino)-1H-pyrazole-4-carboxamide]	≥ 50%	250 to 260 °C	–
CC(C)(C)OC(=O)Nc1ccc(Nc2n[nH]c(NCc3ccc(O)cc3)c2C(N)=O)cc1 [Compound D135]	≥ 50%	222 to 226 °C	–
N#Cc1c(Nc2cccc(Cl)c2)n[nH]c1NCc1ccc(Oc2ccc(C(F)(F)F)cn2)cc1 [Compound C2]	–	62 to 72 °C	B (no greater than 50% but at least 20% inhibition of the RC kinase activity at 1 μM)
NC(=O)c1c(Nc2ccc(N3CCC(N4CCCC4)CC3)cc2)n[nH]c1NCc1ccc(O)cc1 [Compound D121]	≥ 50%	241 to 244 °C	–
NC(=O)c1c(Nc2ccc(F)cc2)n[nH]c1NCc1ccc(O)cc1 [Compound D163]	≥ 50%	204 to 207 °C	–
NC(=O)c1ccc(Nc2n[nH]c(NCc3ccc(O)cc3)c2C(N)=O)cc1 [Compound D63, 3-((4-carbamoylphenyl)amino)-5-((4-hydroxybenzyl)amino)-1H-pyrazole-4-carboxamide]	≥ 50%	225 to 230 °C	–
N#Cc1cccc(Nc2n[nH]c(NCc3ccc(O)cc3)c2C(N)=O)c1 [Compound D66, 3-((3-cyanophenyl)amino)-5-((4-hydroxybenzyl)amino)-1H-pyrazole-4-carboxamide]	≥ 50%	189 to 194 °C	–
CCOc1ccc2ccccc2c1CNc1[nH]nc(Nc2cccnc2)c1C(N)=O [Compound D43, 5-(((2-ethoxynaphthalen-1-yl)methyl)amino)-3-(pyridin-3-ylamino)-1H-pyrazole-4-carboxamide]	20 to 50%	231 to 236 °C	–
NC(=O)c1c(Nc2ccc(-c3cnco3)cc2)n[nH]c1NCc1ccc(O)cc1 [Compound D111]	≥ 50%	258 to 266 °C	–
COc1cc(OC)c(OC)cc1CNc1[nH]nc(Nc2cccnc2)c1C(N)=O [Compound D46, 3-(pyridin-3-ylamino)-5-((2,4,5-trimethoxybenzyl)amino)-1H-pyrazole-4-carboxamide]	5 to 20%	197 to 202 °C	–
COc1ccccc1C(=O)Nc1ccc(Nc2n[nH]c(NCc3ccc(O)cc3)c2C(N)=O)cc1 [Compound D143, 5-((4-hydroxybenzyl)amino)-3-((4-(2-methoxybenzamido)phenyl)amino)-1H-pyrazole-4-carboxamide]	≥ 50%	208 to 211 °C	–
COc1cccc(Nc2n[nH]c(NCc3ccc(O)cc3)c2C(N)=O)c1 [Compound D65, 5-((4-hydroxybenzyl)amino)-3-((3-methoxyphenyl)amino)-1H-pyrazole-4-carboxamide]	≥ 50%	177 to 180 °C	–
